Assays:
[1] = tested on: human synovial sarcoma cell line SW982; test: In vivo combinatorial effect of NYZ-1010 and doxorubicin, human T cell transfer model; settings: NSG mice
Protocol: The administration was carried out on Day 41 (NYZ-1010) or on Days 40 and 47 (doxorubicin). Tumor growth inhibition (%) and change from baseline (%) were calculated according to the expressions given below.

[2] = tested on: human lung adenocarcinoma cell line NCI-H522; test: In vivo combinatorial effect of NYZ-1010 and durvalumab, human T cell transfer model; settings: NSG mice
[3] = tested on: human lung adenocarcinoma cell line NCI-H522; test: In vivo combinatorial effect of NYZ-1010 and pembrolizumab, human T cell transfer model; settings: 53 days after tumor inoculation; NSG mice; NYZ-1010 0.01 mg/kg Days 25, 32, 39; pembrolizumab 10 mg/kg Days 28, 32, 35, 39, 42
Protocol: Tumor growth inhibition (%) was calculated according to the following equation.

[4] = tested on: human esophageal cancer cell line OE-19; test: In vivo combinatorial effect of NYZ-1010 and sacituzumab govitecan-hziy, human T cell transfer model; settings: NSG mice
Protocol: The administration was carried out on Day 7 (NYZ-1010) or on days 6 and 13 (sacituzumab govitecan-hziy). Tumor growth inhibition (%) and change from baseline (%) were calculated according to the expressions given below.

With `COc1cccc2c1C(=O)c1c(O)c3c(c(O)c1C2=O)C[C@@](O)(C(=O)CO)C[C@@H]3O[C@H]1C[C@H](N)[C@H](O)[C@H](C)O1` [doxorubicin] the “TGI (tumor growth inhibition)” value ([1]; 55 days after inoculation, NYZ-1010 0.01 mg/kg Day 41, doxorubicin 2.5 mg/kg Days 40 and 47) was 25.6% and the “Change from baseline (%)” value ([1]; group average, tumor volume on Day 55 vs Day 40 baseline) was 214.1 (n = 5) %.

For durvalumab: anti-PD-L1 antibody, the “TGI (tumor growth inhibition)” value ([2]; 49 days after inoculation, NYZ-1010 0.02 mg/kg Days 25 and 32, durvalumab 10 mg/kg intraperitoneally Days 28, 32, 35, 39) was −0.8% and the “Change from baseline (%)” value ([2]; group average, tumor volume on Day 49 vs Day 24 baseline) was 204.7 (n = 5) %.

In the case of pembrolizumab: anti-PD-1 antibody, the “TGI (tumor growth inhibition)” value [3] is reported as 3.1%.

For sacituzumab govitecan-hziy, the “TGI (tumor growth inhibition)” value ([4]; 21 days after inoculation, NYZ-1010 0.01 mg/kg Day 7, sacituzumab govitecan-hziy 25 mg/kg days 6 and 13) was 35.4% and the “Change from baseline (%)” value ([4]; group average, tumor volume on Day 21 vs Day 6 baseline) was 1027.8 (n = 5) %.

From patent US20250195645A1, “COMBINATION OF MULTISPECIFIC MOLECULE AND IMMUNE CHECKPOINT INHIBITOR” (DAIICHI SANKYO COMPANY, LIMITED, priority 2022, published 2025)
